Data: patent US20170158702A1, “MULTIVALENT RAS BINDING COMPOUNDS” (KYRAS THERAPEUTICS, INC., priority 2015, published 2017)
Counter-ions that a name gives are not always drawn.

What was measured:
Assay type in all cases: cell-based
MIA PaCa-2 = assay: Viability assay with MIA PaCa-2; conditions: MIA PaCa-2, viability assay per Example 57
Method: (§1) NCI-H460 (Epithelial lung tissue; carcinoma; large cell lung cancer) were cultured in RPMI Medium 1640 (Invitrogen-22400105) supplemented with 10% fetal bovine serum (FBS; Invitrogen-10099141). All the cell lines were maintained in a humidified incubator at 37° C. with 5% CO2. Cell culture media and supplements were purchased from Invitrogen, and tissue culture flasks were purchased from Corning, 96-well plates were purchased from Greiner. CellTiter-Glo Luminescent Cell Viability Assay kits were purchased from Promega (Promega-G7573), cells counter Vi-Cell was purchased from Beckman, D300e digital dispenser was purchased from Tecan, detection instrument Envision was purchased from PerkinElmer.
(§2) Paclitaxel was purchased from SELLECK, test compounds, such as any one of the compounds disclosed herein, attained solubility in DMSO and when diluted into culture media. DMSO, solutions containing the test compounds, and culture media were warmed to 37° C. or room temperature for the solution preparation and dilutions.
(§3) NCI-H460 Cell line were seeded in 96-well plates (1200/well) and allowed to adhere to overnight (100 uL/well), for drug treatments with 2 fold dilution, 9 dose points, triplicates or vehicle control, compound stock solutions were prepared in DMSO and use D300e digital dispenser to add compounds to the wells to give the indicated final drug concentrations. Final DMSO concentration was 0.5%. Cellular ATP concentrations were assessed by using the CellTiter-Glo Cell Viability Assay as per the manufacturer's instructions 72 h after compounds addition. Additional cells lines were assayed with any one of the compounds disclosed herein according to the procedures described for the viability assay with NCI-H460.
A viability assay with MIA PaCa-2 (Epithelial pancreas tissue; carcinoma) was performed with compounds listed in Table 15, according to the procedures described in Example 57.

NCI-H460 = assay: Viability assay with NCI-H460 (CellTiter-Glo cytotoxicity assay, 72 h); conditions: NCI-H460 cell line, 72 h after compounds addition
Method: as §1, §2, §3

HT-29 = assay: Viability assay with HT-29; conditions: HT-29, viability assay per Example 57
Method: as §1, §2, §3
A viability assay with HT-29 (Colorectal adenocarcinoma) was performed with compounds listed in Table 18 according to the procedures described in Example 57.

Row | Compound | EC50 (MIA PaCa-2) [µM] | EC50 (NCI-H460) [µM] | EC50 (HT-29) [µM]
1 | NCCCn1cc(-c2ccc(OC(F)(F)F)cc2)c2cc(S(=O)(=O)N3CCN(Cc4ccccc4Cl)CC3)ccc21 [C153; Formic Acid] | ≤ 5 | ≤ 5 | ≤ 5
2 | COc1cccc(Cl)c1-c1cn(CCCN)c2ccc(CN3CCN(Cc4c(Cl)cccc4Cl)CC3)cc12 [C154; HCl] | ≤ 5 | ≤ 5 | ≤ 5
3 | FC(F)(F)Oc1ccc(-c2cn(C3CCNCC3)c3ccc(CN4CCN(Cc5ccccc5Cl)CC4)cc23)cc1 [C170; HCl] | ≤ 5 | ≤ 5 | ≤ 5
4 | FC(F)(F)Oc1ccc(-c2cn(CC3CCNCC3)c3ccc(CN4CCN(Cc5ccccc5Cl)CC4)cc23)cc1 [C171; HCl] | ≤ 5 | ≤ 5 | ≤ 5
5 | O=C(NCCCn1cc(-c2ccc(OC(F)(F)F)cc2)c2cc(CN3CCN(Cc4c(Cl)cccc4Cl)CC3)cnc21)C1CNCCN1 (centres unmarked) [C176; HCl] | ≤ 5 | ≤ 5 | 
6 | NCCCn1cc(-c2ccc(OC(F)(F)F)cc2)c2cc(CN3CCN(Cc4c(Cl)cccc4Cl)CC3)cnc21 [C177; HCl] | ≤ 5 | ≤ 5 | 
7 | NCCCn1nc(-c2ccc(OC(F)(F)F)cc2)c2cc(CN3CCN(Cc4ccccc4Cl)CC3)ccc21 [C178; HCl] | ≤ 5 | ≤ 5 | ≤ 5
8 | NCCCn1cc(-c2cccc(C(N)=O)c2)c2cc(CN3CCN(Cc4ccccc4Cl)CC3)ccc21 [C179; HCl] | ≤ 5 | ≤ 5 | ≤ 5
9 | NCCCn1cc(-c2ccc(C(N)=O)cc2)c2cc(CN3CCN(Cc4ccccc4Cl)CC3)ccc21 [C180; HCl] | ≤ 5 | ≤ 5 | ≤ 5
10 | NCCCn1cc(-c2ccccc2CO)c2cc(CN3CCN(Cc4ccccc4Cl)CC3)ccc21 [C181; HCl] | ≤ 5 | ≤ 5 | ≤ 5
11 | NCCCn1nc2ccc(CN3CCN(Cc4ccccc4Cl)CC3)cc2c1-c1ccc(OC(F)(F)F)cc1 [C182; HCl] | ≤ 5 | ≤ 5 | ≤ 5
12 | NCCCn1cc(-c2ccc(OC(F)(F)F)cc2)c2c(CN3CCN(Cc4ccccc4Cl)CC3)cccc21 [C183; HCl] | ≤ 5 | ≤ 5 | ≤ 5
13 | NCCCn1cc(-c2ccccc2C(N)=O)c2cc(CN3CCN(Cc4ccccc4Cl)CC3)ccc21 [C185; HCl] | 5 to 10 | 5 to 10 | 5 to 10
14 | NCCCn1cc(-c2ccc(OC(F)(F)F)cc2)c2c(CN3CCN(Cc4ccc(OC(F)(F)F)cc4)CC3)cccc21 [C186; HCl] | 5 to 10 | 5 to 10 | 5 to 10
15 | NCCCn1cc(-c2ccc(OC(F)(F)F)cc2)c2cc(CN3CCN(Cc4ccn[nH]4)CC3)ccc21 [C187; HCl] | ≤ 5 | ≤ 5 | ≤ 5
16 | NCCCn1cc(-c2ccc(CCN)cc2)c2cc(CN3CCN(Cc4ccccc4Cl)CC3)ccc21 [C188; HCl] | 5 to 10 | 5 to 10 | 5 to 10
17 | NCCCn1cc(-c2ccc(OC(F)(F)F)cc2CN)c2cc(CN3CCN(Cc4ccc5c(c4)OCO5)CC3)ccc21 [C302; HCl] | ≤ 5 | ≤ 5 | 
18 | NCCCn1cc(-c2ccc(OC(F)(F)F)cc2CN)c2cc(CN3CCN(Cc4ccc5c(c4)OCCO5)CC3)ccc21 [C303; HCl] | ≤ 5 | ≤ 5 | 
19 | NCCCn1cc(-c2ccc(OC(F)(F)F)cc2CN)c2cc(CN3CCN(Cc4cccc5c4OCO5)CC3)ccc21 [C304; HCl] | ≤ 5 | ≤ 5 | 
20 | COc1ccc(CN2CCN(Cc3ccc4c(c3)c(-c3ccc(OC(F)(F)F)cc3CN)cn4CCCN)CC2)c(Cl)c1 [C305; HCl] | ≤ 5 | ≤ 5 | 
21 | COc1cccc(CN2CCN(Cc3ccc4c(c3)c(-c3ccc(OC(F)(F)F)cc3CN)cn4CCCN)CC2)c1Cl [C306; HCl] | ≤ 5 | ≤ 5 | 
22 | COc1ccc(Cl)c(CN2CCN(Cc3ccc4c(c3)c(-c3ccc(OC(F)(F)F)cc3CN)cn4CCCN)CC2)c1 [C307; HCl] | ≤ 5 | ≤ 5 | 
23 | COc1cc(CN2CCC3(CC2)CCN(Cc2ccc4c(c2)c(-c2ccc(OC(F)(F)F)cc2)cn4CCCN)C3)cc(OC)c1 [C308; HCl] | ≤ 5 | ≤ 5 | 
24 | COc1cccc(CN2CCC3(CC2)CCN(Cc2ccc4c(c2)c(-c2ccc(OC(F)(F)F)cc2)cn4CCCN)C3)c1 [C309; HCl] | ≤ 5 | ≤ 5 | 
